2 compounds from PMC11609934, “Exploration and characterization of the antimalarial activity of cyclopropyl carboxamides that target the mitochondrial protein, cytochrome b” (European Journal of Medicinal Chemistry, 2024) can be followed below.

One series deals with mitochondrial ETC. In words: P. falciparum oxygen consumption rate (OCR) assay (Seahorse XFe96). It is filed as cell-based, Plasmodium falciparum. The note with it: compounds 5 μM. The protocol: To provide further evidence to support the cyclopropyl carboxamide series targeting cyt b, an oxygen consumption rate (OCR) assay was performed using a Seahorse XFe96 Flux Analyzer. The primary role of the mitochondria ETC is to produce ATP oxidative phosphorylation, and thus the oxygen consumption directly quantifies mitochondrial ETC activity. In this assay, malate, which is a substrate of malate quinone dehydrogenase (MQD), was added to provide a base line of oxygen consumption at approximately 50 pmol/min (Fig. 4). […] Finally, NaN3 was added to inhibit complex IV to bring the OCR back to basal levels.
Fig. 4 P. falciparum oxygen consumption rate (OCR) assay. Data represent the means and SDs of 3 technical replicates. Time points and reagent injections were as follows, 1. First 5 timepoints measured the basal level of malate-dependent OCR; 2. Compounds (5 μM) were injected independently (indicated by arrow), and OCR measured for 8-timepoints; 3. TMPD (a cytochrome c electron donor) was injected, and OCR measured for 5 time points; 4. NaN3 (a complex IV inhibitor) was then added, and OCR measured for 5 time points.
ETC Biosensor Assay. This assay was performed as previously described. Briefly, 3 × 10^8 trophozoite infected RBCs were purified using the SuperMACS II separator (Miltenyi Biotec, Germany). The trophozoite-stage parasites were released from erythrocytes by treating them with 0.05 % (w/v) pre-warmed saponin in phosphate-buffered saline (PBS) at 37 °C for 3 min. The cells were washed with pre-warmed PBS, three times. […] The cells were measured for oxygen consumption rate (OCR) using Seahorse XFe96 flux analyzer (Agilent). The OCR was assessed for five cycles of 20 s mixing, 1 min waiting, 2.5 min measuring to establish baseline OCR before any substrate injections, for eight cycles of 20 s mixing, 1 min waiting followed by 2.5 min measuring after inhibitor injection from port A and for five cycles of 20 s mixing 1 min waiting, 2.5 min measuring after TMPD, and NaN3, injections.

In series [1] the test system is ring-stage P. falciparum parasites. In words: Asexual stage of arrest assay. The note with it: 10 times EC50, sampled every 12 h for 48 h. It is filed as cell-based, Plasmodium falciparum. On the procedure:
Characterization of asexual stage phenotype and rate of asexual kill is important in determining the downstream application and TCP of an antimalarial series. […] Parasites were sampled every 12 h for 48 h, to prepare Giemsa-stained blood smears for analysis by microscopy. Parasitemia of each sample was measured by flow cytometry using SYBR-Green DNA staining.
Asexual Stage of Arrest Assay. This assay was conducted as previously described.

Another series deals with 3D7 P. falciparum strain. The series is described as follows: Parasite reduction ratio (PRR) assay. It is filed as cell-based, Plasmodium falciparum. The note with it: 10 times the EC50, up to 120 h. The protocol: The parasite reduction ratio (PRR) assay is a benchmark assay used to determine the speed of kill of antimalarials at an early stage of development. […] After 28 days of incubation, parasite growth is measured using an LDH assay.
Parasite Reduction Ratio Assay. This is a platform assay conducted by TGC Lifesciences using a previously described protocol. […] Parasites were treated up to 120 h. Drug was renewed every 24 h over the entire treatment period (as directed). Samples of parasites were taken from the treated culture every 24 h (24, 48, 72, 96 and 120 h time points), drug was washed out and drug-free parasites were cultured in 96 well plates. To quantify number of viable parasites after treatment, serial dilutions were performed with the above-mentioned compounds after washing out the compound. Parasites were cultured in microtiter plates to allow all wells with viable parasites, to render detectable parasitaemia. After 22 days of culturing, cultured plates were checked for parasite growth. Final sampling was done after 28 days to confirm growth/no growth. The parasite levels were determined using a LDH assay as follows. A culture of parasitized red blood cells (RBC) of strain 3D7 with 0.25 % parasitaemia and 2 % haematocrit in RPMI-1640, 0.5 % albumax and 150 μM hypoxanthine is exposed to 3-fold serial dilutions of the compound. […]

Series [2] concerns P. berghei ANKA parasites. In words: P. berghei 4-day mouse model. It is filed as in vivo, Plasmodium berghei. The protocol: The 4-day P. berghei mouse model is used to determine the preliminary in vivo efficacy of antimalarials at an early stage of optimization. To determine if cyclopropyl carboxamide series could reduce asexual blood stage infection, we evaluated representative compounds WJM280 (108) and analog 109 in the 4-day P. berghei mouse model. In this model, mice were infected P. berghei asexual stage parasites, and then 2 h after the infection, WJM280 (108) and analog 109 at 50 mg/kg and artesunate at 30 mg/kg were administered by oral gavage. The same compound doses were administered again, 24, 48, and 72 h post infection. Parasitemia was then quantified by preparing blood smears and visualizing by microscopy across days 2, 3, and 4. […] The inability of these compounds to reduce parasitemia was attributed to their high metabolic turnover, which is a characteristic that needs improving on further development of the cyclopropyl carboxamide class.
P. berghei 4-day Mouse Model. This model was conducted as previously described.

Consider `O=C(NC1CC1)c1ccc(CN(Cc2ccc(Cl)cc2Cl)C2CC2)cc1` [W499 (2)], for which the “effect on malate-dependent oxygen consumption rate (OCR)” value in the series with mitochondrial ETC is reported as “reduced the OCR to the same level as ATQ”. Besides, the “asexual stage of arrest” value in series [1] is recorded as “parasite arrest at the start of the trophozoite stage”. Besides, the “rate of kill in PRR assay” value in the series with 3D7 P. falciparum strain is “moderate to slow rate of kill”.

Turning to `CCCN(Cc1ccc(C(=O)NC2CC2)cc1)Cc1ccc(C(F)(F)F)cc1` [WJM280 (108), N-Cyclopropyl-4-((propyl(4-(trifluoromethyl)benzyl)amino)methyl)benzamide], in series [2] (50 mg/kg q.d. oral, 4 days), the “body weights of mice” value was “remained unchanged”. Further, in series [2] (mice, day 4, oral gavage q.d. x4, 50 mg/kg (ART 30 mg/kg)), the “% parasitemia” value is 81%. In series [2] (versus vehicle control, mice, day 4, oral gavage q.d. x4, 50 mg/kg (ART 30 mg/kg)), the “% reduction in parasitemia” value was determined as 19%.
